Test system: 596521-263-R-J1-PDC complex spheroid growth
Assay: Anticancer human tumor 596521-263-R-J1-PDC patient-derived soft tissue sarcoma cell line growth inhibition [Asc]
Conditions: for IC50: curve of first compound; for viability, T/C: stronger effect = lower value
How it was run: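 Tumor cells were grown as complex spheroids with human endothelial cells (HUVEC) and human mesenchymal stem cells as stroma. Agents were tested alone and in combination, in half-log steps down from the clinical Cmax, or from 10 microM where Cmax was unknown.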
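Note: spheroids exposed to compounds for 7 days.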

In the case of `C=C(F)C(=O)N1CCN(c2nc(OCC3CCCN3C)nc3c2CCN(c2cccc4cccc(Cl)c24)C3)CC1CC#N` (configuration not stated) + CCN1C(C(=O)NC23CCC(C(=O)O)(CC2)CC3)C(c2cccc(Cl)c2F)C2(C(=O)Nc3cc(Cl)ccc32)C12CCCCC2, the IC50 (second compound 0.00949 µM) is reported as 5.24 µM, the IC50 (second compound 0.03 µM) is reported as 5.11 µM and the IC50 (second compound 0.0949 µM) is reported as 5.18 µM. For the same molecule, the IC50 (second compound 0.3 µM) was 5.11 µM, the IC50 (second compound 0.949 µM) was 4.73 µM and the IC50 (second compound 3 µM) was 4.53 µM. It also gave a viability, T/C (second compound 0.00949 µM, first compound 0.0316 µM) of 106%, a viability, T/C (second compound 0.00949 µM, first compound 0.1 µM) of 102% and a viability, T/C (second compound 0.00949 µM, first compound 0.316 µM) of 91.2%. The viability, T/C (second compound 0.00949 µM, first compound 1 µM) was 104%, the viability, T/C (second compound 0.00949 µM, first compound 3.16 µM) was 88.7% and the viability, T/C (second compound 0.00949 µM, first compound 10 µM) was 0.73%. It also gave a viability, T/C (second compound 0.03 µM, first compound 0.0316 µM) of 101%, a viability, T/C (second compound 0.03 µM, first compound 0.1 µM) of 90.4% and a viability, T/C (second compound 0.03 µM, first compound 0.316 µM) of 97.5%. It also gave a viability, T/C (second compound 0.03 µM, first compound 1 µM) of 97.3%, a viability, T/C (second compound 0.03 µM, first compound 3.16 µM) of 85.3% and a viability, T/C (second compound 0.03 µM, first compound 10 µM) of 0.62%. It also gave a viability, T/C (second compound 0.0949 µM, first compound 0.0316 µM) of 94.3%, a viability, T/C (second compound 0.0949 µM, first compound 0.1 µM) of 96.4% and a viability, T/C (second compound 0.0949 µM, first compound 0.316 µM) of 106%. It also gave a viability, T/C (second compound 0.0949 µM, first compound 1 µM) of 101%, a viability, T/C (second compound 0.0949 µM, first compound 3.16 µM) of 86.1% and a viability, T/C (second compound 0.0949 µM, first compound 10 µM) of 1.83%. For the same molecule, the viability, T/C (second compound 0.3 µM, first compound 0.0316 µM) was 98.7%, the viability, T/C (second compound 0.3 µM, first compound 0.1 µM) was 107% and the viability, T/C (second compound 0.3 µM, first compound 0.316 µM) was 101%. The viability, T/C (second compound 0.3 µM, first compound 1 µM) was 100%, the viability, T/C (second compound 0.3 µM, first compound 3.16 µM) was 83.6% and the viability, T/C (second compound 0.3 µM, first compound 10 µM) was 2.96%. For the same molecule, the viability, T/C (second compound 0.949 µM, first compound 0.0316 µM) was 109%, the viability, T/C (second compound 0.949 µM, first compound 0.1 µM) was 97.9% and the viability, T/C (second compound 0.949 µM, first compound 0.316 µM) was 108%. For the same molecule, the viability, T/C (second compound 0.949 µM, first compound 1 µM) was 105%, the viability, T/C (second compound 0.949 µM, first compound 3.16 µM) was 75.3% and the viability, T/C (second compound 0.949 µM, first compound 10 µM) was 2.73%. For the same molecule, the viability, T/C (second compound 3 µM, first compound 0.0316 µM) was 97%, the viability, T/C (second compound 3 µM, first compound 0.1 µM) was 98.6% and the viability, T/C (second compound 3 µM, first compound 0.316 µM) was 102%. The viability, T/C (second compound 3 µM, first compound 1 µM) was 80.2%, the viability, T/C (second compound 3 µM, first compound 3.16 µM) was 75.5% and the viability, T/C (second compound 3 µM, first compound 10 µM) was 2.66%.
